Assay results taken from US20080161232A1, “C5a Receptor Antagonist” (JERINI AG, priority 2005, published 2008).
Starred links: 1 amine or outer side, 2 acyl side, 3 side chain; linkers in the order of their positions; H or OH if unused. Positions of bridges follow the written chain, without caps; N, C: chain ends. Non-standard residues stand in square brackets, D forms with d. Residues, ends and D or L forms follow the SMILES beside them. *: point of attachment. Phe(3-NO2) = N[C@@H](Cc1cccc([N+](=O)[O-])c1)C(=O)O; Phe(3,4-Cl2) = N[C@@H](Cc1ccc(Cl)c(Cl)c1)C(=O)O; Propanoyl(3,3-Ph2) = O=C(CC(c1ccccc1)c1ccccc1)*; Dihydroorotyl(S) = O=C1C[C@@H](C(=O)*)NC(=O)N1; dβ3hPhg = O=C(C[C@H](N[*:1])c1ccccc1)[*:2]; Decanoyl(3,6,9-trioxa) = COCCOCCOCC(=O)*; Phe(3-Cl) = N[C@@H](Cc1cccc(Cl)c1)C(=O)O; Phe(3-OMe) = COc1cccc(C[C@H](N)C(=O)O)c1; X3 = O=C([C@H](CCNC1=NCCN1)N[*:1])[*:2]; NMe2Phe = CN(C)[C@@H](Cc1ccccc1)C(=O)*; Phe(4-F) = N[C@@H](Cc1ccc(F)cc1)C(=O)O; His(τ-Me) = Cn1cnc(C[C@H](N)C(=O)O)c1; Bta = N[C@@H](Cc1csc2ccccc12)C(=O)O; Hyp = O=C(O)[C@@H]1C[C@@H](O)CN1; d(hLeu) = CC(C)CC[C@@H](N)C(=O)O; dCha = N[C@H](CC1CCCCC1)C(=O)O; Nle = CCCC[C@H](N)C(=O)O; Orn = NCCC[C@H](N)C(=O)O; Aze = O=C(O)[C@@H]1CCN1; Nva = CCC[C@H](N)C(=O)O

molecular target: T1, human C5aR(CD88) (Homo sapiens, UniProt P21730); experiment: Determination of the IC50 value in an enzyme release assay (functional assay, antagonistic activity); assay type: cell-based; conditions: activity (group)
T1 construct: expressed in transfected cells; host or cells: rat basophilic leukemia cells (RBL)
T1 sequence (P21730 1-350): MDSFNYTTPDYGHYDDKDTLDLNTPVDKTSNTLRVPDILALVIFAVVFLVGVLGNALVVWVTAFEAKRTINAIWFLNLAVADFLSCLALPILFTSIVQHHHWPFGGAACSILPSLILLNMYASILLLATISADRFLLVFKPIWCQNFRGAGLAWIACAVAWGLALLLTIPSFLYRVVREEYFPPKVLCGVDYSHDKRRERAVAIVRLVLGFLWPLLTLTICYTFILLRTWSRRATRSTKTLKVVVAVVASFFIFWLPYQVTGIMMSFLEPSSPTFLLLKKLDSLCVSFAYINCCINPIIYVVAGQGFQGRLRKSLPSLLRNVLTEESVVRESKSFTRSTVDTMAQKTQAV

| Compound | IC50 [µM] |
| --- | --- |
| CC(=O)N[C@@H](Cc1ccccc1)C(=O)N[C@@H](CCCN)C(=O)N1CCC[C@H]1C(=O)N[C@H](CCC(C)C)C(=O)N[C@@H](Cc1cccc(Cl)c1)C(=O)N[C@@H](Cc1ccccc1)C(N)=O [Compound 291, Ac-Phe-Orn-Pro-hle-Mcf-Phe-NH2] (Ac-F[Orn]P[d(hLeu)][Phe(3-Cl)]F-NH2) | 0.05 to 0.2 |

same assay, conditions: antagonistic activity; IC50 group in enzyme release assay, RBL cells expressing human C5aR(CD88); read-out: activity (group)

| Compound | IC50 [µM] |
| --- | --- |
| CC(=O)N[C@@H](CC(=O)N[C@@H](CCCN)C(=O)N1CCC[C@H]1C(=O)N[C@H](CC1CCCCC1)C(=O)N[C@@H](Cc1csc2ccccc12)C(=O)N[C@@H](Cc1ccccc1)C(N)=O)c1ccccc1 [Compound 125, Ac-Eby-Orn-Pro-cha-Bta-Phe-NH2] (Ac-[dβ3hPhg][Orn]P[dCha][Bta]F-NH2) | 0.02 to 0.05 |
| CC(C)CC[C@@H](NC(=O)[C@@H]1CCCN1C(=O)[C@H](CCCN)NC(=O)[C@H](Cc1ccccc1)NC(=O)[C@@H]1CC(=O)NC(=O)N1)C(=O)N[C@@H](Cc1csc2ccccc12)C(=O)N[C@@H](Cc1ccccc1)C(N)=O [Compound 350, Hoo-Phe-Orn-Pro-hle-Bta-Phe-NH2] ({Dihydroorotyl(S)}-F[Orn]P[d(hLeu)][Bta]F-NH2) | 0.02 to 0.05 |
| CC(=O)N[C@@H](Cc1ccccc1)C(=O)N[C@@H](CCCN)C(=O)N1CCC[C@H]1C(=O)N[C@H](CCC(C)C)C(=O)N[C@@H](Cc1cccc([N+](=O)[O-])c1)C(=O)N[C@@H](Cc1ccccc1)C(N)=O [Compound 287, Ac-Phe-Orn-Pro-hle-Egz-Phe-NH2] (Ac-F[Orn]P[d(hLeu)][Phe(3-NO2)]F-NH2) | 0.05 to 0.2 |
| CCCC[C@@H]1NC(=O)[C@H](Cc2c[nH]c3ccccc23)NC(=O)[C@@H](CC2CCCCC2)NC(=O)[C@H](CO)NC(=O)[C@@H](NC(=O)[C@@H](N)Cc2ccccc2)CCCNC1=O [Compound 382, H-Phe-[Orn-Ser-cha-Trp-Nle]] (H-F[Orn]S[dCha]W[Nle]; lactam 2-C) | 0.02 to 0.05 |
| CCCC[C@@H]1NC(=O)[C@H](Cc2c[nH]c3ccccc23)NC(=O)[C@@H](CC2CCCCC2)NC(=O)[C@@H]2C[C@@H](OC(=O)COCCOCCOC)CN2C(=O)[C@@H](NC(=O)[C@H](Cc2ccccc2)NC(C)=O)CCCNC1=O [Compound 5, Ac-Phe-[Orn-Hyp(COCH2OCH2CH2OCH2CH2OCH3)-cha-Trp-Nle]] (Ac-F[Orn][Hyp](Decanoyl(3,6,9-trioxa))[dCha]W[Nle]; lactam 2-C) | 0.05 to 0.2 |
| CC(=O)N[C@@H](Cc1ccccc1)C(=O)N[C@H]1CCCNC(=O)[C@H](CCCCN)NC(=O)[C@H](Cc2c[nH]c3ccccc23)NC(=O)[C@@H](CC2CCCCC2)NC(=O)[C@@H]2CCCN2C1=O [Compound 22] (Ac-F[Orn]P[dCha]WK; lactam 2-C (inferred)) | > 2 |
| CCC[C@@H]1NC(=O)[C@H](Cc2c[nH]c3ccccc23)NC(=O)[C@@H](CC2CCCCC2)NC(=O)[C@@H]2CCCN2C(=O)[C@@H](NC(=O)[C@H](Cc2ccccc2)NC(C)=O)CCCNC1=O [Compound 31, Ac-Phe-[Orn-Pro-cha-Trp-Nva]] (Ac-F[Orn]P[dCha]W[Nva]; lactam 2-C) | 0.01 to 0.02 |
| CC(=O)N[C@@H](Cc1ccccc1)C(=O)N[C@H]1CCCNC(=O)[C@H](Cc2cn(C)cn2)NC(=O)[C@H](Cc2c[nH]c3ccccc23)NC(=O)[C@@H](CC2CCCCC2)NC(=O)[C@@H]2CCCN2C1=O [Compound 192, Ac-Phe-[Orn-Pro-cha-Trp-Ecr]] (Ac-F[Orn]P[dCha]W[His(τ-Me)]; lactam 2-C) | 0.02 to 0.05 |
| CC(=O)N[C@@H](Cc1ccc(F)cc1)C(=O)N[C@@H](CCCN)C(=O)N1CCC[C@H]1C(=O)N[C@H](CCC(C)C)C(=O)N[C@@H](Cc1cccc(Cl)c1)C(=O)N[C@@H](Cc1ccc(F)cc1)C(N)=O [Compound 171, Ac-Pff-Orn-Pro-hle-Mcf-Pff-NH2] (Ac-[Phe(4-F)][Orn]P[d(hLeu)][Phe(3-Cl)][Phe(4-F)]-NH2) | 0.05 to 0.2 |
| CC(=O)N[C@@H](Cc1ccccc1)C(=O)N[C@@H](CCCN)C(=O)N1CCC[C@H]1C(=O)N[C@H](CCC(C)C)C(=O)N[C@@H](Cc1csc2ccccc12)C(=O)N[C@@H](Cc1ccc(Cl)c(Cl)c1)C(N)=O [Compound 276, Ac-Phe-Orn-Pro-hle-Bta-Eaa-NH2] (Ac-F[Orn]P[d(hLeu)][Bta][Phe(3,4-Cl2)]-NH2) | 0.05 to 0.2 |
| CC(=O)N[C@@H](Cc1ccccc1)C(=O)N[C@@H](CCNC1=NCCN1)C(=O)N1CC[C@H]1C(=O)N[C@H](CC1CCCCC1)C(=O)N[C@@H](Cc1csc2ccccc12)C(=O)N[C@@H](Cc1ccccc1)C(N)=O [Compound 219, Ac-Phe-Fcn-Aze-cha-Bta-Phe-NH2] (Ac-F[X3][Aze][dCha][Bta]F-NH2) | 0.01 to 0.02 |
| CC(=O)N[C@@H](CCCNC(=N)N)C(=O)N[C@@H](Cc1ccccc1)C(=O)N[C@@H](CCCN)C(=O)N1CC[C@H]1C(=O)N[C@H](CC1CCCCC1)C(=O)N[C@@H](Cc1csc2ccccc12)C(=O)N[C@@H](Cc1ccccc1)C(N)=O [Compound 137, Ac-Arg-Phe-Orn-Aze-cha-Bta-Phe-NH2] (Ac-RF[Orn][Aze][dCha][Bta]F-NH2) | 0.02 to 0.05 |
| CCCC[C@@H]1NC(=O)[C@H](Cc2c[nH]c3ccccc23)NC(=O)[C@@H](CC2CCCCC2)NC(=O)[C@@H]2CCCN2C(=O)[C@@H](NC(=O)[C@H](Cc2ccccc2)N(C)C)CCCNC1=O [Compound 331, Fbp-[Orn-Pro-cha-Trp-Nle]] (NMe2Phe-[Orn]P[dCha]W[Nle]; lactam 1-C) | 0.05 to 0.2 |
| CC(=O)N[C@@H](Cc1ccccc1)C(=O)N[C@@H](CCCNC(=N)N)C(=O)N1CCC[C@H]1C(=O)N[C@H](CC1CCCCC1)C(=O)N[C@@H](Cc1c[nH]c2ccccc12)C(=O)N[C@@H](Cc1ccccc1)C(N)=O [Compound 104, Ac-Phe-Arg-Pro-cha-Trp-Phe-NH2] (Ac-FRP[dCha]WF-NH2) | 0.05 to 0.2 |
| COc1cccc(C[C@H](NC(=O)[C@@H](CCC(C)C)NC(=O)[C@@H]2CCCN2C(=O)[C@H](CCCN)NC(=O)[C@H](Cc2ccccc2)NC(C)=O)C(=O)N[C@@H](Cc2ccccc2)C(N)=O)c1 [Compound 293, Ac-Phe-Orn-Pro-hle-Mmy-Phe-NH2] (Ac-F[Orn]P[d(hLeu)][Phe(3-OMe)]F-NH2) | 0.05 to 0.2 |
| CC(=O)N[C@@H](Cc1ccccc1)C(=O)N[C@H]1CCCNC(=O)[C@H](Cc2ccccc2)NC(=O)[C@H](Cc2c[nH]c3ccccc23)NC(=O)[C@@H](CC2CCCCC2)NC(=O)[C@@H]2C[C@@H](OC(C)=O)CN2C1=O [Compound 176, Ac-Phe-[Orn-HyA-cha-Trp-Phe]] (Ac-F[Orn][Hyp](Ac)[dCha]WF; lactam 2-C) | 0.05 to 0.2 |
| CC(=O)N[C@@H](Cc1ccc(F)cc1)C(=O)N[C@@H](CCCN)C(=O)N1CCC[C@H]1C(=O)N[C@H](CC1CCCCC1)C(=O)N[C@@H](Cc1csc2ccccc12)C(=O)N[C@@H](Cc1ccccc1)C(N)=O [Compound 169, Ac-Pff-Orn-Pro-cha-Bta-Phe-NH2] (Ac-[Phe(4-F)][Orn]P[dCha][Bta]F-NH2) | 0.02 to 0.05 |
| NCCC[C@H](NC(=O)CC(c1ccccc1)c1ccccc1)C(=O)N1CCC[C@H]1C(=O)N[C@H](CC1CCCCC1)C(=O)N[C@@H](Cc1c[nH]c2ccccc12)C(=O)N[C@@H](Cc1ccccc1)C(N)=O [Compound 70, Ph2-CH—CH2—CO-Orn-Pro-cha-Trp-Phe-NH2] ({Propanoyl(3,3-Ph2)}-[Orn]P[dCha]WF-NH2) | 0.2 to 2 |

same assay, conditions: functional assay of example 11; noteworthy = IC50 less than 200 nM

| Compound | inhibitory activity (in words) |
| --- | --- |
| CCC[C@@H]1NC(=O)[C@H](Cc2c[nH]c3ccccc23)NC(=O)[C@@H](CC2CCCCC2)NC(=O)[C@@H]2CCCN2C(=O)[C@@H](NC(=O)[C@H](Cc2ccccc2)NC(C)=O)CCCNC1=O [Compound 31, Ac-Phe-[Orn-Pro-cha-Trp-Nva]] (Ac-F[Orn]P[dCha]W[Nva]; lactam 2-C) | without significant loss of activity |

same assay, conditions: functional assay of example 11; noteworthy = IC50 less than 200 nM; listed as Ac-Phe-[Orn-Pro-cha-Trp-Nva]

| Compound | inhibitory activity (in words) |
| --- | --- |
| CCC[C@@H]1NC(=O)[C@H](Cc2c[nH]c3ccccc23)NC(=O)[C@@H](CC2CCCCC2)NC(=O)[C@@H]2CCCN2C(=O)[C@@H](NC(=O)[C@H](Cc2ccccc2)NC(C)=O)CCCNC1=O [Compound 31, Ac-Phe-[Orn-Pro-cha-Trp-Nva]] (Ac-F[Orn]P[dCha]W[Nva]; lactam 2-C) | noteworthy inhibitory activity |
